Key:
[1] = test system: untransfected HEK-293 cells; test: forskolin-stimulated cAMP accumulation, untransfected HEK-293 cells; format: cell-based, human
[2] = test system: RAMP-CLR complexes (RAMP1, RAMP2, RAMP3); test: (Ca^2+)i mobilization with inhibitor pretreatment, HEK-293 cells, all RAMP-CLR complexes; format: cell-based, human; conditions: 100 nM YM-254890, 30 min pretreatment
Protocol: FIGURE 8. CLR in combination with each RAMP generates receptors that mobilize (Ca^2+)i release when expressed in HEK-293 cells. (Ca^2+)i mobilization was determined from HEK-293 cells transiently transfected with CLR and RAMP1 (n = 5) (A), RAMP2 (n = 5) (B), and RAMP3 (n = 5) (C). […] Data are expressed as percentage of the maximal (Ca^2+)i release as determined using 10 μM ionomycin. To determine the contribution made by different G proteins to the (Ca^2+)i response, cells were preincubated with either PTX (to inhibit Gαi) or YM-254890 (a selective Gαq inhibitor). All values are means ± S.E. of n individual data sets.
HEK-293 cells, provided by Dr. Jügen Müller (University of Aston), were cultured in DMEM supplemented with 10% heat-inactivated FBS and kept at 37 °C in a humidified 95% air, 5% CO2 incubator. HEK-293S cells (a gift from AstraZeneca) were cultured in DMEM supplemented with 8% heat-inactivated FBS and kept at 37 °C in a humidified 95% air, 5% CO2 incubator. HEK-293 cells were transfected with FuGENE 6 (Roche Applied Science) in accordance with the manufacturer's instructions using a 1:3 (w:v) DNA:FuGENE ratio and a 1:1 ratio of RAMP to CLR. HEK-293S cells were seeded into 96-well poly-D-lysine-coated plates at a density of 15,000 cells/well (determined using a Countess^TM cell counter, Invitrogen) 1 day prior to transfection. HEK-293S cells were transiently transfected as described previously ([38]) using a 1:1 ratio of RAMP to CLR. The transfected cell lines were grown for 24–48 h prior to assaying.
Transfected HEK-293 cells were grown to confluence in black, clear bottomed, 96-well plates. […] Ligands were added robotically using a Mithras LB 940 multimode microplate reader in the range of 10 pM to 1 μM, and fluorescence was determined immediately post-injection with an excitation wavelength set to 485 nm and an emission wavelength set to 535 nm. […] Peak magnitude was calculated using five-point smoothing followed by correction against background fluorescence. […]

## C=C[C@@]1(C)CC(=O)[C@]2(O)[C@@]3(C)[C@@H](O)CCC(C)(C)[C@@H]3[C@H](O)[C@H](OC(C)=O)[C@@]2(C)O1 [forskolin, Forskolin]
[1]; untransfected HEK-293, PTX treated
  overall level of cAMP accumulation, forskolin stimulation: 16.45 ± 2.4 pmol cell^−1
[1]; untransfected HEK-293, untreated (no PTX)
  overall level of cAMP accumulation, forskolin stimulation: 16.57 ± 2.5 pmol cell^−1

## YM-254890
[2]; HEK-293, all RAMP-CLR complexes
  effect of YM-254890 on (Ca^2+)i mobilization by AM and AM2: abolish all (Ca^2+)i mobilization
[2]; HEK-293, all three RAMP-CLR complexes
  effect of YM-254890 on response to CGRP: considerably attenuated
